{
  "source": "patent US8048872B2",
  "about": "“Treatment of hyperproliferative diseases with vinca alkaloid N-oxide and analogs” (Stat of Oregon Acting by and Through The Oregon State Board …, priority 2006, dated 2011)",
  "key": {"[1]": {"conditions": "cited from earlier work"}, "[2]": {"test_system": "human HT29 colorectal adenocarcinoma", "set-up": "species or system mouse", "conditions": "in vivo"}, "[3]": {"test_system": "metastatic cancer of the colon or rectum", "conditions": "350 mg/m^2 30-minute iv infusion once every 3 weeks; 132 previously treated patients; cited from earlier work"}, "[4]": {"test_system": "human K562 myelogenous leukemia cells", "experiment": "in vivo", "procedure": "(§1) In one example, female nude mice (n=10) were inoculated subcutaneously with 15×10^6 human K562 myelogenous leukemia cells in a 1:1 ratio with matrigel on the right flank. Tumor volumes were monitored and calculated using the formula: Tumor volume=(a^2×b/2) where ‘a’ is the smallest diameter and ‘b’ is the largest diameter. Once the established tumors reached approximately 75-150 mm^3 (individual tumor volumes may range from […]) the mice were assigned to the various vehicle control and treatment groups such that the mean tumor volumes in the treated groups were within 10% of the mean tumor weight in the vehicle control group. On the same day (day 1) and days 4, 7, 10, and 13, vinca-alkaloid N-oxide analogs (VCR-NO, VBL-NO) were administered intravenously according to a q3d×5 schedule. Mice were also treated with vehicle (negative control) and the standard agents, vinblastine and vincristine (positive controls). Tumor volumes were recorded three times a week starting when tumors were palpable and including the day of study termination. Animals were monitored for signs of toxicity and body weights were recorded twice a week starting on the first day of treatment and including the day of study termination. […] The mean day of sacrifice were calculated to determine the tumor growth delay and tumor growth inhibition effects of each test article as compared to vehicle control. […] Statistical significance between the treated vs. control groups was evaluated by logrank analysis."}, "[5]": {"test_system": "Human H460 lung adenocarcinoma tumor cells", "protocol": "Cells were exposed with gentle rocking to a constant level of low oxygen (0.2% O2-5% CO2-balance N2) in a hypoxia apparatus (INVIVO2400 Hypoxia Workstation, Ruskin Technology) for 12 hr at 37° C. Identically treated cells were incubated under normoxia (air-5% CO2) at 37° C. Cells were harvested and lysed in DNA lysis buffer (20 mM Tris-HCL, pH 8.0, 1 mM EDTA, 0.1% Triton X-100) and stored at −80° C. for analysis of DNA content and LC/MS/MS analysis. […] Lysates were mixed with 150 ml of methanol containing 0.1% acetic acid and vinca alkaloid internal standard, and vortexed for 10 min, and centrifuged for 5 min at 18000 g. Clarified supernatants were transferred to HPLC vials fitted with glass inserts and analyzed by LC-MS/MS. Chromatography was performed on an Acquity HPLC system fitted with an Acquity BEH C18 column, and used 0.1% (v:v) formic acid in water for mobile phase A, and 0.1% (v:v) formic acid in acetonitrile for mobile phase B. Mass spectral analysis was performed using a Micromass Quattro Micro triple quadupole mass spectrometer.\nThe amounts of each compound were calculated from standard curves."}, "[6]": {"test_system": "human H460 lung adenocarcinoma cells", "protocol": "Human H460 lung adenocarcinoma tumor cells were cultured in DMEM-10% FBS under standard conditions. One-hundred mm plastic culture dishes were seeded with 1×10^6 tumor cells/dish and treated with vinca alkaloids or N-oxide analogs at a 0.01-100 nM dose range. Cells were exposed with gentle rocking to a constant level of low oxygen (0.2, 1% or 5% O2-5% CO2-balance N2) in a hypoxia apparatus (INVIVO2400 Hypoxia Workstation, Ruskin Technology) for 14 hr at 37° C. Identically treated cells were incubated under normoxia (air-5% CO2) at 37° C. Cells were harvested and replated in fresh medium at a density of 1×10^3 cells/well in 48-well plastic culture plates to assess viability 24-72 hr later. Briefly, Alamar Blue was added to replicate wells on Day 0 and Day 3, and cells were incubated for a further 3-6 hr at 37° C. before fluorescence readings using a plate reader (530-560 nm excitation, 590 emission). The percent inhibition of proliferation was calculated and plotted against control-treated cells at each drug concentration. […] The Hypoxia Cytotoxicity Ratio (HCR) was defined as ((IC50 in Hypoxia)/(IC50 in Normoxia))."}, "[7]": {"test_system": "SiHa", "protocol": "(§4) Tumor cell line were cultured in DMEM-10% FBS under standard conditions. One-hundred mm plastic culture dishes were seeded with 1×10^6 tumor cells and treated with vinca alkaloids or N-oxide analogs at a dose range of 0.01-100 nM. Cells were exposed with gentle rocking to a constant level of low oxygen (0.2% O2-5% CO2-balance N2) in a hypoxia apparatus (INVIVO2400 Hypoxia Workstation, Ruskin Technology) for 14 hr at 37° C. Identically treated cells were incubated under normoxia (air-5% CO2) at 37° C. Cells were harvested and replated in fresh medium at a density of 1×10^3 cells/well in 48-well plastic culture plates to assess viability 24-72 hr later. Briefly, Alamar Blue was added to replicate wells on Day 0 and Day 3, and cells were incubated for a further 3-6 hr at 37° C. before fluorescence readings using a plate reader (530-560 nm excitation, 590 emission). The percent inhibition of proliferation was calculated and plotted against control-treated cells at each drug concentration. […] The Hypoxia Cytotoxicity Ratio (HCR) was determined as the ratio of the IC50 of the compound under normoxic conditions vs. hypoxic conditions."}, "[8]": {"conditions": "mouse, in vivo", "protocol": "Body weights were monitored twice weekly and up to 2 weeks following treatment. Mice were also injected ip with 4 or 6 mg/kg vinblastine using the same q3d×5 schedule as a positive control."}, "[9]": {"test_system": "H460 lung carcinoma tumor cells", "format": "cell-based, human"}, "[10]": {"test_system": "FaDU head and neck tumor cell lines", "protocol": "as §4"}, "[11]": {"test_system": "multiple human solid tumor cell lines", "experiment": "Hypoxia-induced cytotoxicity across cell lines (HCR range)", "format": "cell-based", "protocol": "as §4"}, "[12]": {"test_system": "human HL60 promyelocytic leukemia cells", "conditions": "in vivo"}, "[13]": {"test_system": "murine P388 leukemic tumor cells", "experiment": "in vivo", "procedure": "(§2) For example, B6D2F1 mice (n=8/group) were inoculated subcutaneously (sc) in the right flank with 1×10^6 murine L1210 leukemic tumor cells. […] Test agents were administered on multiple treatment regimen (q3d×5) to yield optimal dose schedule benefit. Vehicle control treated mice served as the negative control group; mice treated with the bioreduced parent compounds, vincristine and vinblastine, dosed at their […] (MTDs), served as the positive control groups. Tumors were measured with calipers twice weekly and tumor volume calculated using the formula: Tumor Volume (mm^3)=((width)^2×length)/2. Animals were monitored for signs of toxicity and weighed daily for the first 5 days of the study and then twice-weekly until the study end. As pre-defined in the protocol, each animal was actively euthanized when its tumor reached the pre-determined endpoint size of 2000 mm^3 or at the conclusion of the study (day 37) whichever came first. The time to endpoint (TTE) was calculated for each mouse as TTE (days)=(log10(endpoint volume mm^3)−b)/m where b is the intercept and m is the slope of the line obtained by linear regression of a log-transformed tumor growth data set. Treatment outcome was determined from tumor growth delay (TGD) which is defined as the increase in median TTE in a treatment (T) group as compared to the control (C) group (TGD=T−C) expressed in days or as a percentage of the median TTE of the control group % TGD=((T−C)/C)×100. […] Statistical significance between the treated vs. control groups was evaluated by logrank analysis.\n(§3) This model was developed by subcutaneously inoculating B6D2F1 mice (n=8/group) with 1×10^6 murine P388 leukemic tumor cells using similar methodology to that described above for L1210. […] Agents were administered on multiple treatment regimen (q3d×5) to yield optimal dose schedule benefit. Efficacy of treatment with the N-oxide analogs was determined by Tumor Growth Delay (TGD) and Kaplan-Meier survival analysis as described for L1210, the exception being that the conclusion of the study was day 45 or the predefined endpoint size of 2000 mm^3 whichever came first. Vehicle control treated mice served as the negative control group; mice treated with the standard agents, vincristine and vinblastine, dosed at their MTDs, served as the positive control groups."}, "[14]": {"test_system": "A549 non-small cell lung carcinoma", "protocol": "as §4"}, "[15]": {"experiment": "in vivo", "conditions": "female, nude, mouse, iv", "procedure": "as §1"}, "[16]": {"experiment": "in vivo", "conditions": "female, nude, mouse, iv", "remark": "listed apart in the source"}, "[17]": {"test_system": "human H460 lung adenocarcinoma", "protocol": "as §4"}, "[18]": {"experiment": "in vivo", "conditions": "B6D2F1, mouse, in vivo, iv", "procedure": "as §2, §3"}, "[19]": {"test_system": "human H460 lung adenocarcinoma", "experiment": "cells", "conditions": "NCI-H460, 14 h", "protocol": "as §4"}, "[20]": {"test_system": "murine L1210 leukemic tumor cells", "experiment": "in vivo", "conditions": "L1210; 1 mg/kg i.v. q3d×5", "procedure": "as §2"}, "[21]": {"experiment": "in vivo", "conditions": "B6D2F1, mouse, in vivo, iv", "procedure": "as §2", "remark": "listed apart in the source"}, "[22]": {"conditions": "Grade III-IV, Naïve pts (n = 48)"}, "[23]": {"conditions": "Grade III-IV, Pre-treated patients (n = 165)"}},
  "note": "Several values for one entry are separate records, joined by “and”; a condition that tells them apart may be missing. Identical values can stand only once. Like-named read-outs stand apart in the source and are kept apart here.",
  "data": [
    {"smiles": "CCc1c2c(nc3ccc(OC(=O)N4CCC(N5CCCCC5)CC4)cc13)-c1cc3c(c(=O)n1C2)COC(=O)[C@]3(O)CC", "note": "[CPT-11, 7-ethyl-10[4-(1-piperidino)-1-piperidino]carbonyloxycamptothecin, reference compound]", "values": [
      {"measurement": "Alopecia", "setting": "[1]; [22]", "value": "Alopecia 54%"},
      {"measurement": "Delayed Diarrhea", "setting": "[1]; [22]", "value": "Delayed Diarrhea 35%"},
      {"measurement": "Nausea/Vomiting", "setting": "[1]; [22]", "value": "Nausea/Vomiting 13%"},
      {"measurement": "Thrombocytopenia", "setting": "[1]; [22]", "value": "Thrombocytopenia 2%"},
      {"measurement": "Leukopenia/Neutropenia Toxicity", "setting": "[1]; Grade III-IV, Naïve pts", "value": 48, "unit": "%"},
      {"measurement": "Alopecia", "setting": "[1]; [23]", "value": "Alopecia 53%"},
      {"measurement": "Delayed Diarrhea", "setting": "[1]; [23]", "value": "Delayed Diarrhea 39%"},
      {"measurement": "Nausea/Vomiting", "setting": "[1]; [23]", "value": "Nausea/Vomiting 22%"},
      {"measurement": "Thrombocytopenia", "setting": "[1]; [23]", "value": "Thrombocytopenia 3%"},
      {"measurement": "Leukopenia/Neutropenia Toxicity", "setting": "[1]; Grade III-IV, Pretreated pts", "value": 47, "unit": "%"},
      {"measurement": "Documented Infection", "setting": "[1]; Grade III-IV", "value": 5, "unit": "%"},
      {"measurement": "Neutropenic Fever", "setting": "[1]; Grade III-IV", "value": "Neutropenic Fever 14%"},
      {"measurement": "Anemia Grade III-IV", "setting": "[1]; Naïve pts (n = 48)", "value": 8, "unit": "%"},
      {"measurement": "Anemia Grade III-IV", "setting": "[1]; Pre-treated patients (n = 165)", "value": 10, "unit": "%"},
      {"measurement": "Tumor Growth Delay", "setting": "[2]; ip, 100 mg/kg", "value": 60, "unit": "%"},
      {"measurement": "intent-to-treat response rate", "setting": "[3]", "value": 12.1, "unit": "%"}
    ]},
    {"smiles": "CC[C@]1(O)C[C@H]2C[C@](C(=O)OC)(c3cc4c(cc3OC)N(C)[C@H]3[C@@](O)(C(=O)OC)[C@H](OC(C)=O)[C@]5(CC)C=CCN6CC[C@]43[C@@H]65)c3[nH]c4ccccc4c3CC[N@+]([O-])(C2)C1", "note": "[Vinblastine N-oxide, Vinblastine N′b-Oxide]", "values": [
      {"measurement": "Tumor Growth Inhibition", "setting": "[4]", "value": "77% and 89%"},
      {"measurement": "bioreduction to parent compound", "setting": "[5]", "value": "bioreduced to vinblastine under hypoxia exposure"},
      {"measurement": "cytotoxicity vs oxygen concentration", "setting": "[6]", "value": "Increased cytotoxicity"},
      {"measurement": "Hypoxia Cytotoxicity Ratio (HCR)", "setting": "[7]", "value": 4.3},
      {"measurement": "body weight loss / gross symptoms of toxicity", "setting": "[8]", "value": "no evidence of significant body weight loss or gross symptoms of toxicity"},
      {"measurement": "Hypoxia Cytotoxicity Ratio", "setting": "[9]", "value": "~20"},
      {"measurement": "IC50 inhibitory activity after activation under hypoxia", "setting": "[9]", "value": "low nanomolar"},
      {"measurement": "Hypoxia Cytotoxicity Ratio (HCR)", "setting": "[10]", "value": 7.5},
      {"measurement": "HCR values", "setting": "[11]", "value": "3-21"},
      {"measurement": "Tumor Growth Inhibition", "setting": "[12]", "value": "91% and 94%"}
    ]},
    {"smiles": "CC[C@]1(O)C[C@@H]2C[C@](C(=O)OC)(c3cc4c(cc3OC)N(C=O)[C@H]3[C@@](O)(C(=O)OC)[C@@H](OC(C)=O)[C@]5(CC)C=CCN6CC[C@]43[C@@H]65)c3[nH]c4ccccc4c3CC[N@+]([O-])(C2)C1", "note": "[Vincristine N-oxide, Vincristine N′b-Oxide]", "values": [
      {"measurement": "Tumor Growth Inhibition", "setting": "[4]", "value": "69% and 84% and 60%"},
      {"measurement": "bioreduction to parent compound", "setting": "[5]", "value": "bioreduced to vincristine under hypoxia exposure"},
      {"measurement": "body weight loss / gross symptoms of toxicity", "setting": "mouse, in vivo", "value": "no evidence of significant body weight loss or gross symptoms of toxicity"},
      {"measurement": "Tumor Growth Delay", "setting": "[13]; mouse, in vivo", "value": "76% and 54%"},
      {"measurement": "Hypoxia Cytotoxicity Ratio (HCR)", "setting": "[14]", "value": 11.2},
      {"measurement": "Tumor Growth Delay", "setting": "[2]", "value": 42, "unit": "%"},
      {"measurement": "Hypoxia Cytotoxicity Ratio (HCR)", "setting": "[10]", "value": 6},
      {"measurement": "HCR values", "setting": "[11]", "value": "5-25"},
      {"measurement": "Tumor Growth Inhibition", "setting": "[12]", "value": "94% and 96%"}
    ]},
    {"smiles": "CC[C@]1(O)C[C@H]2CN(CCc3c([nH]c4ccccc34)[C@@](C(=O)OC)(c3cc4c(cc3OC)N(C=O)[C@H]3[C@@](O)(C(=O)OC)[C@H](OC(C)=O)[C@]5(CC)C=CCN6CC[C@]43[C@@H]65)C2)C1", "note": "[Vincristine, vincristine]", "values": [
      {"measurement": "MTD", "setting": "[15]", "value": 1.5, "unit": "mg/kg"},
      {"measurement": "MTD", "setting": "[16]", "value": 1.5, "unit": "mg/kg"},
      {"measurement": "body weight loss", "setting": "0.6-1 mg/kg iv q3d×5, during the course of treatment", "value": "significant body weight loss"},
      {"measurement": "Hypoxia Cytotoxicity Ratio (HCR)", "setting": "[17]", "value": 1.1},
      {"measurement": "Median Survival", "setting": "[13]; P388, 1 mg/kg i.v. q3d×5", "value": 20.8, "unit": "days"},
      {"measurement": "Tumor Growth Delay", "setting": "[13]; P388, 1 mg/kg i.v. q3d×5", "value": 54, "unit": "%"},
      {"measurement": "MTD", "setting": "[18]", "value": 1, "unit": "mg/kg"},
      {"measurement": "IC50", "setting": "[19]; read-out: IC50 Air", "value": 0.017, "unit": "µM"},
      {"measurement": "IC50", "setting": "[19]; read-out: IC50 Hypoxia", "value": 0.015, "unit": "µM"},
      {"measurement": "Median Survival", "setting": "[20]", "value": 19.6, "unit": "days"},
      {"measurement": "Tumor Growth Delay", "setting": "[20]", "value": 8, "unit": "%"},
      {"measurement": "MTD", "setting": "[21]", "value": 1, "unit": "mg/kg"}
    ]}
  ]
}
